The values that follow come from patent US5527811A, “Isoquinolinyl compounds which are useful in treating cerebral vascular disorders” (Takeda Chemical Industries, Ltd., priority 1993, dated 1996).

Each structure is given as a SMILES string. Counter-ions that a name gives are not always drawn. Like-named read-outs stand apart in the source and are kept apart here.

The test system of assay [1] is transient cerebral ischemia in mongolian gerbils. Description: Protective effect of cerebralischemia: survival ratio after bilateral common carotid occlusion and reperfusion in gerbils. The format is in vivo, mongolian gerbil. The note with it: Meriones unguiculatus, ip; for responders at 5 mg/kg: read-out: Survival ratio. As to the method:
Test Example 1 Protective effect of cerebralischemia
Male mongolian gerbils (Seiwa/8-10 wks) (n=8-10) were used. Bilateral common carotid arteries were occluded after the incision of the center of the neck under ether anesthesia. Global cerebral ischemia was induced by the occlusion of bilateral common carotid arteries (15 minutes), and after that these arteries were reperfused. Test sample was administered intraperiatonelly 30 minutes before occlusion and 90 minutes after reperfusion. In the control group, vehicle (distilled water, saline or 5% gum arabic) was administered in the same fashion. Survival ratio was estimated at 8 hr after reperfusion (Table 2).

Assay [2] has as its system brain edema in male wistar rats. In words: Anti-brain edema effect (middle cerebral arterial occlusion and reperfusion model). Type of assay: in vivo, rat (wistar). The settings on record: 10 mg/kg(ip) × 7, rat, 3rd day after reperfusion, * p < 0.05. The source says: Test Example 2 Anti-brain edema effect (middle cerebral arterial occlusion and reperfusion model)
Male wistar rats (Jcl:9wks) were anesthetized with inhalation of halothane (2-bromo-2-chloro-1,1,1-trifluoroethane). After the incision of neck, bilateral common carotid arteries were […] an embolized needle (diameter 0.3 mm, length 26 mm nylon thread) was inserted into the left internal carotid artery through external carotid artery and, simultaneously, the bilateral common carotid arteries were occluded by the Sugita's aneurysm clips. The embolized needle and the clips were removed out 30 minutes after occlusion. Test sample was administered immediately and 5 hr after reperfusion on the operated day, twice a day on the 1st and 2nd day, and 1 hr before removing the brain on the 3rd day (total 7 times), intraperiatonelly. In the control group, vehicle (distilled water, saline or 5% gum arabic) was administered in the same fasion. Brain edema on the 3rd day after reperfusion was estimated from the content of water, potassium and sodium in cerebral cortex and striatum. Water content was calculated from the ratio of dried brain weight and wet brain weight [(1-dried weight/wet weight)×100%]. The contents of pottasium and sodium were measured using the solution extracted from dried brain tissue with 14% nitric acid by the method of the framephotometer (Table 3).

[3] abbreviates: 5 mg/kg, 30 min before occlusion and 90 min after reperfusion, estimated 8 hr after reperfusion, control 0.
Setting [4] is: 30 min before occlusion and 90 min after reperfusion, estimated 8 hr after reperfusion, control 0.

On to `CN(C)Cc1ccc(NC(=O)NCc2c(-c3ccccc3)c3cc(Cl)ccc3c(=O)n2C)cc1` [43 (HCl), N-[(6-Chloro-1,2-dihydro-2-methyl-1-oxo-4-phenylisoquinolin-3-yl)methyl]-N'-[4-(dimethylaminomethyl)phenyl]urea], for which the responders at 5 mg/kg in assay [1] (setting [3]) is 63%.
Still for that read-out and setting: next, `CC(C)Oc1cccc(NC(=O)NCc2c(-c3ccccc3)c3ccccc3c(=O)n2C)c1` [Example 16, N-[(1,2-Dihydro-2-methyl-1-oxo-4-phenylisoquinolin-3yl)methyl]-N'-(3-isopropoxyphenyl)urea]: 88%; `CN(C)CCCc1cccc(NC(=O)NCc2c(-c3ccccc3)c3cc(Cl)ccc3c(=O)n2C)c1` [44 (HCl), N-[(6-Chloro-1,2-dihydro-2-methyl-1-oxo-4-phenylisoquinolin-3-yl)methyl]-N'-{3-[3-(dimethylamino)propyl]phenyl}urea]: 63%; `Cn1c(CNC(=O)Nc2cccc(CN)c2)c(-c2ccccc2)c2cc(Cl)ccc2c1=O` [51 (HCl), N-[3-(Aminomethyl)phenyl]-N'-[(6-chloro-1,2-dihydro-2-methyl-1-oxo-4-phenylisoquinolin-3-yl)methyl]urea hydrochloride]: 100%.
In the case of `CC(C)Oc1cccc(N(CC(=O)O)C(=O)NCc2c(-c3ccccc3)c3cc(Cl)ccc3c(=O)n2C)c1` [22 (Ma), N-Carboxymethyl-N'-[(6-chloro-1,2-dihydro-2-methyl-1-oxo-4-phenylisoquinolin-3-yl)methyl]-N-(3isopropoxyphenyl)urea sodium salt], the responders at 5 mg/kg in assay [1] (8 h) came out at 63%.
Regarding `CN(C)c1cccc(NC(=O)NCc2c(-c3ccccc3)c3cc(Cl)ccc3c(=O)n2C)c1` [14 (HCl), N-[(6-Chloro-1,2-dihydro-2-methyl-1-oxo-4-phenylisoquinolin-3-yl)methyl]-N'-(3-N,N-dimethylaminophenyl)urea hydrochloride], the responders at 5 mg/kg in assay [1] (setting [3]) is 63%.
The same measure, in the same setting: next, `CC(C)Oc1cccc(N(C)C(=O)N(C)Cc2c(-c3ccccc3)c3cc(Cl)ccc3c(=O)n2C)c1` [Example 24, N-[(6-Chloro-1,2-dihydro-2-methyl-1-oxo-4-phenylisoquinolin-3-yl)methyl]-N'-(3-isopropoxyphenyl)-N,N'-dimethylurea]: 75%.
For `Cn1c(CNC(=O)Nc2cccc(C(=O)O)c2)c(-c2ccccc2)c2cc(Cl)ccc2c1=O` [17 (Na), N-(3-Carboxyphenyl)-N'-[(6-chloro-1,2-dihydro-2-methyl-1-oxo-4-phenylisoquinolin-3-yl)methyl]urea sodium salt], the responders at 5 mg/kg in assay [1] (8 h) came to 67%.
As for `CCNCc1cccc(NC(=O)NCc2c(-c3ccccc3)c3cc(Cl)ccc3c(=O)n2C)c1` [49 (HCl), N-[(6-Chloro-1,2-dihydro-2-methyl-1-oxo-4-phenylisoquinolin-3-yl)methyl]-N'-[3-(ethylaminomethyl)phenyl]urea hydrochloride], the responders at 5 mg/kg in assay [1] (setting [3]) is 88%.
On to `CC(C)Oc1cccc(OC(=O)NCc2c(-c3ccccc3)c3cc(Cl)ccc3c(=O)n2C)c1` [Example 29, 3-Isopropoxyphenyl N-[(6-chloro-1,2-dihydro-2-methyl-1-oxo-4-phenylisoquinolin-3-yl)methyl]carbamate], for which the responders at 5 mg/kg in assay [1] (8 h) was found to be 75%.
Take `CN(C)Cc1cccc(NC(=O)NCc2c(-c3ccccc3)c3cc(Cl)ccc3c(=O)n2C)c1` [15 (HCl), N-[(6-Chloro-1,2-dihydro-2-methyl-1-oxo-4-phenylisoquinolin-3-yl)methyl]-N'-(3-N,N-dimethylaminomethylphenyl)urea hydrochloride]: the responders at 0.3 mg/kg in assay [1] (setting [4]) is 80%. The responders at 5 mg/kg in assay [1] (setting [3]) is 88%. The “H2O (water content of brain)” value in assay [2] (control 81.27 (Example 1), 80.94 (Example 15(HCl))) amounted to 80.24 ± 0.23%. For the same molecule, the “Na (sodium content of brain)” value in assay [2] (control 405 (Example 1), 371 (Example 15(HCl))) was 325 ± 17 mEq/kg. The “K (potassium content of brain)” value in assay [2] (control 430 (Example 1), 440 (Example 15(HCl))) stood at 466 ± 9 mEq/kg.
Consider `CNCc1cccc(NC(=O)NCc2c(-c3ccccc3)c3cc(Cl)ccc3c(=O)n2C)c1` [48 (HCl), N-[(6-Chloro-1,2-dihydro-2-methyl-1-oxo-4-phenylisoquinolin-3-yl)methyl]-N'-[3-(methylamino)methylphenyl]urea hydrochloride], for which, in assay [1] (setting [3]), the responders at 5 mg/kg is 88%.
In the case of `Cn1c(CNC(=O)Cc2cccc(C(=O)O)c2)c(-c2ccccc2)c2cc(Cl)ccc2c1=O` [28 (Na), N-(6-Chloro-1,2-dihydro-2-methyl-1-oxo-4-phenylisoquinolin-3-yl)methyl-α-(3-carboxyphenyl)acetamide sodium salt], the responders at 5 mg/kg in assay [1] (8 h) turned out to be 75%.
With `Cn1c(CNC(=O)Nc2cccc(CN3CCCC3)c2)c(-c2ccccc2)c2cc(Cl)ccc2c1=O` [40 (HCl), N-[(6-Chloro-1,2-dihydro-2-methyl-1-oxo-4-phenylisoquinolin-3-yl)methyl]-N'-[3-(1-pyrrolidinomethyl)phenyl]urea], in assay [1] (setting [3]), the responders at 5 mg/kg was 75%.
Same read-out and setting: next, `Cn1c(CNC(=O)Nc2ccc3c(c2)CCC3N)c(-c2ccccc2)c2cc(Cl)ccc2c1=O` (stereo not drawn) [50 (HCl), N-(1-Aminoindan-5-yl)-N'-[(6-chloro-1,2-dihydro-2-methyl-1-oxo-4-phenylisoquinolin-3-yl)methyl]urea hydrochloride]: 75%.
On the same count and under the same terms, under `Cn1c(CNC(=O)NCCCn2ccnc2)c(-c2ccccc2)c2cc(Cl)ccc2c1=O` [47 (HCl), N-[(6-Chloro-1,2-dihydro-2-methyl-1-oxo-4-phenylisoquinolin-3-yl)methyl]-N'-[3-(1-imidazolyl)propyl]urea] stands 75%.
On to `CCN(CC)CCc1cccc(NC(=O)NCc2c(-c3ccccc3)c3cc(Cl)ccc3c(=O)n2C)c1` [41 (HCl), N-[(6-Chloro-1,2-dihydro-2-methyl-1-oxo-4-phenylisoquinolin-3-yl)methyl]-N'-{3-[2-(diethylamino)ethyl]phenyl}urea], for which, in assay [1] (setting [4]), the responders at 0.3 mg/kg was 75%. In addition, the responders at 5 mg/kg in assay [1] (setting [3]) is 88%.
Turning to `CCN(CC)Cc1cccc(NC(=O)NCc2c(-c3ccccc3)c3cc(Cl)ccc3c(=O)n2C)c1` [39 (HCl), N-[(6-Chloro-1,2-dihydro-2-methyl-1-oxo-4-phenylisoquinolin-3-yl)methyl]-N'-[3-(diethylaminomethyl)phenyl]urea], the responders at 5 mg/kg in assay [1] (setting [3]) was 63%.
The same measure, in the same setting: next, `CC(C)Oc1cccc(CC(=O)NCc2c(-c3ccccc3)c3cc(Cl)ccc3c(=O)n2C)c1` [Example 27, N-(6-Chloro-1,2-dihydro-2-methyl-1-oxo-4-phenylisoquinolin-3-yl)methyl-α-(3-isopropoxyphenyl)acetamide]: 88%.
As for `CN(C)CCOc1cccc(NC(=O)NCc2c(-c3ccccc3)c3cc(Cl)ccc3c(=O)n2C)c1` [45 (HCl), N-[(6-Chloro-1,2-dihydro-2-methyl-1-oxo-4-phenylisoquinolin-3-yl)methyl]-N'-{3-[2-(dimethylamino)ethoxy]phenyl}urea], the responders at 5 mg/kg in assay [1] (setting [3]) was 82%.
The same measure, in the same setting: under `CN(C)Cc1cccc(NC(=O)NCc2c(-c3ccc(F)cc3)c3ccccc3c(=O)n2C)c1` [53 (HCl), N-{[4-(4-Fluorophenyl)-1,2-dihydro-2-methyl-1-oxoisoquinolin-3-yl]methyl}-N'-[3-(dimethylaminomethyl)phenyl]urea hydrochloride] stands 75%; under `CC(C)Oc1cccc(CC(=O)OCc2c(-c3ccccc3)c3cc(Cl)ccc3c(=O)n2C)c1` [Example 32, (6-Chloro-1,2-dihydro-2-methyl-1-oxo-4-phenylisoquinolin-3-yl)methyl α-(3-isopropoxyphenyl)acetate], 63%.
